{"source": "patent US20150045433A1", "about": "“METHODS AND COMPOSITIONS FOR INDUCING PHYSIOLOGICAL HYPERTROPHY” (THE REGENTS OF THE UNIVERSITY OF COLORADO, A BODY CORPORATE, priority 2009, published 2015)", "key": {"[1]": {"system": "neonatal rat ventricular myocytes (NRVMs)", "experiment": "NRVM cell size / hypertrophy (a-actinin staining, Coulter Counter)", "type": "cell-based", "description": "Primary culture cardiomyocytes prepared from neonatal rats were treated with fasted and post-fed serum samples. Twenty four hours later the cells were removed from the culturing dish and analyzed for changes in cell size by immunostaining or by automatic analyzer such as Coulter Counter.\nIn other experiments, neonatal rat cardiac myocytes (NRVMs) were prepared according to the method described in Waspe et al. (1990). In brief, cells were obtained from the hearts of Sprague-Dawley rat pups (1-2 days old) by trypsinization and plated in MEM medium (Hanks' salts) with 5% calf serum. After 48 h in culture, cells were transferred to serum-free medium supplemented with transferring and insulin (each 10 μg/ml). Cells were maintained in 60- or 35-mm culture dishes at a density of 200,000 cells/ml. Contaminating non-muscle cells were kept at <10% by pre-plating and addition of 0.1 mM bromodeoxyuridine to the medium though day 3 of culture.\nBefore treating the cells, serum samples were thawed and heat inactivated at 58° C. for 30 min. […]\nCardiomyocytes grown on gelatin-coated coverslips were infected with Ad Aqp7 for 48 h. […] Images were captured at a 40x magnification with a fluorescence microscope (Nikon E800) equipped with a digital camera (AxioCam) and Axiovision, version 3.0.6.36 imaging software (Carl Zeiss, Thornwood, NY). The surface areas were measured using NIH image software (Image J) and at least 100 individualized cells were analyzed per each experiment. Cell size was also determined by particle size analyzer, Coulter Counter Multisizer 3 ([…]).\nInhibition of fatty acid transport blocks serum-induced NRVM hypertrophy. […] NRVMs were treated with serum (2%) in the presence and absence of SSO (400 μM) for 48 hours and cell size was determined using a Coulter Counter.\nIndividual fatty acids were complexed to BSA as described by de Vries et al. (1997), which is hereby incorporated by reference. […] NRVM gene expression and mean cell diameter were determined after either 24 or 48 hours, respectively. […]"}, "AQP7 mRNA": {"system": "AQP7 mRNA", "experiment": "AQP7 mRNA expression in neonatal rat cardiomyocytes by qPCR", "type": "cell-based", "details": "for AQP7 mRNA expression: fasted serum (2%) plus individual fatty acid (C14: 10, 33, 100 μM; C16: 33, 100, 300 μM; C16:1: 3, 10, 33 μM), 48 hours", "description": "Individual fatty acids were complexed to BSA as described by de Vries et al. (1997), which is hereby incorporated by reference. […] An equal volume of Na2CO3 (10 mM) was added and the ethanol was evaporated at 60° C. under continuous N2 flow. The fatty acid mix was added dropwise to 10% BSA. BSA/fatty acid complexes were then dialyzed four times at 4° C. during 4-6 hours in NH4HCO3 (0.1 M). Complexes were then frozen, lyophilized overnight, and resuspended in NRVM rinse media (MEM/PB12/Hepes) for a final concentration of 7 mM. NRVMs were treated with fasted serum, 1 day post-fed serum, or fasted serum+individual fatty acids. […] NRVM gene expression and mean cell diameter were determined after either 24 or 48 hours, respectively.\nDose-dependent effects of individual fatty acids on AQP7 expression. […] Fasted serum (2% final) and fatty acids were diluted in serum-free media (MEM/Hepes/PB12) containing insulin, trnsferrin, BSA, and BrdU. Cells were treated for 48 hours and AQP7 mRNA expression was determined using qPCR with 18S as the normalizing gene.\nsiRNA studies. Rat AQP7 mRNA sequence was analyzed for potential small interfering RNA (siRNA) target regions using a sequence identification tool (Ambion, Inc., Austin, Tex.). Potential target sequences were transcribed from oligonucleotide templates using the Silencer siRNA Construction kit (Ambion, Inc., Austin, Tex.). To test for the ability of siRNAs to effectively reduce AQP7 expression, NRVMs were transfected with siRNA (100 nM) using Lipofectamine Plus reagent as specified by the manufacturer (Invitrogen, Carlsbad, Calif.). Several rat AQP7-specific siRNA sequences (#1: 5′-[…]-3′ (SEQ ID NO:22); #2: […]-3′ (SEQ ID NO:23); #3 5′-[…]-3′ (SEQ ID NO:24)) were tested for efficacy of gene knockdown using qPCR. […] A nonspecific siRNA (Silencer Negative Control #2; Ambion, Inc., Austin, Tex.) was used as a negative control."}, "[2]": {"system": "fetal gene program (β-myosin heavy chain, ANF, BNP, skeletal actin, SERCA)", "experiment": "Pathologic fetal gene expression in NRVMs by qPCR", "type": "cell-based, rat", "details": "48 hours", "description": "FIG. 4. […] Neonatal rat cardiomyocytes were untreated (lightest gray bars) or treated with fasted serum (light gray bars), post-fed serum (black bars) and Phenylephrin (PE; dark gray bars). After 48 hours, RNA was isolated and cDNA was obtained by standard procedures. The expression of several pathologic hypertrophic markers was measured by quantitative real-time PCR including β-myosin heavy chain, atrial natriuretic factor (ANF), brain natriuretic peptide (BNP), skeletal actin and sarcoplasmic reticulum calcium ATPase (SERCA).\nTotal RNA was extracted by TRizol (Invitrogen). 0.5 μg of RNA was reverse transcribed into cDNA using the SuperScript III first-strand cDNA synthesis kit (Invitrogen). Typically, 0.1 ng of cDNA, 12.5 nM of each primer, and Power SYBER Green PCR Master Mix (Applied Biosystems, Foster City, Calif.) were used in the reverse transcription (RT)-PCR reactions. Reactions were performed using the ABI7300 system. The primers used are presented on Table 1.\nTotal RNA was extracted from mouse or python ventricle and NRVMs using TRI Reagent (Invitrogen). 0.5 to 2.0 μg of RNA was reverse transcribed into cDNA using the SuperScript III first-strand cDNA synthesis kit (Invitrogen). Quantitative real time PCR reactions were performed using the ABI7300 system (Applied Biosystems, Foster City, Calif., USA) and the Power SYBR Green PCR Master Mix (Applied Biosystems). […]"}}, "note": "Entries after “also recorded” stand apart in the source; their conditions may differ."}
{"smiles": "CCCCCCCCCCCCCC(=O)O", "note": "[C14, tetradecanoic acid]", "values": [{"measurement": "cell size", "setting": "[1]; fasted plasma (2%) supplemented with fatty acids at 1 DPF levels (C14 40 μM; C16 137 μM; C16:1 7.5 μM), 48 hours", "value": "significant increase in cell size"}, {"measurement": "Aqp7 mRNA levels", "setting": "AQP7 mRNA; fasted plasma supplemented with FFAs, relative to 1 DPF plasma", "value": "comparable levels observed with 1 DPF plasma"}, {"measurement": "AQP7 mRNA expression", "setting": "AQP7 mRNA", "value": "tended to increase AQP7 mRNA expression in a dose-dependent manner"}]}
{"smiles": "CCCCCCCCCCCCCCCC(=O)O", "note": "[C16, hexadecanoid acid]", "values": [{"measurement": "AQP7 mRNA expression", "setting": "AQP7 mRNA", "value": "tended to increase AQP7 mRNA expression in a dose-dependent manner"}]}
{"smiles": "CCCCCC/C=C\\CCCCCCCC(=O)O", "note": "[C16:1, (z)-9-hexadecenoic acid]", "values": [{"measurement": "AQP7 mRNA expression", "setting": "AQP7 mRNA", "value": "tended to increase AQP7 mRNA expression in a dose-dependent manner"}]}
{"smiles": "CCCCCCCC/C=C\\CCCCCCCC(=O)ON1C(=O)CC(S(=O)(=O)O)C1=O", "note": "(centres unmarked) [SSO, sulfo-N-succinimidyl oleate]", "values": [{"measurement": "effect on cell growth (hypertrophy) induced by fed serum/plasma", "setting": "[1]; SSO 400 μM, 2% 1DPF fed serum/plasma", "value": "completely blocks the cell growth induced by the fed-serum; also recorded: completely blocked the pro-hypertrophic effect of fed plasma; also recorded: significantly reduced"}, {"measurement": "cell size, no serum (control)", "setting": "[1]; presence of SSO, no serum", "value": "smaller"}]}
{"smiles": "CNC[C@H](O)c1cccc(O)c1", "note": "[phenylephrine]", "values": [{"measurement": "activation of fetal gene program / pathological gene expression", "setting": "[2]", "value": "robust activation of pathological patterns of gene expression"}]}
